Tests used:
Assay type in all cases: in vivo
[1] = system: Greenhouse Whitefly (Trialeuroddes vaporariorum); assay: Insecticidal effect on greenhouse whitefly, sprayed tomato leaf (Test Examples 2 and 4); conditions: for Test Example 4: controlling effect at a low dosage (corrected mortality): 3 ppm liquid chemical, otherwise same as Test Example 2; for Test Example 2: insecticidal effect (corrected mortality): 100 ppm liquid chemical, sprayed tomato leaf, 20 adult whiteflies, four days after the inoculation
Excerpt: Insecticidal Effect on Greenhouse Whitefly (Trialeuroddes vaporariorum)
A preparation containing each compound of the present invention listed in Tables 2 to 4 or each comparative compound as an active ingredient was dispersed in and diluted with water to obtain a 100 ppm liquid chemical. A tomato leaf set in a 20-ml vial with its stalk immersed in water was sprayed with the liquid chemical with a spray gun on a turntable. After air-dryness, the treated leaf was placed in a glass cylinder and inoculated with 20 adult greenhouse whiteflies. After the treatment, the glass cylinder was placed in a greenhouse. Four days after the inoculation, the living insects were counted. The corrected mortality was calculated according to the following equation and the insecticidal effect was judged according to the criterion shown below.
[formula] Criterion for Judgment:
Insecticidal Effect on Greenhouse (Trialeuroddes vaporariorum) at a Low Dosage
The same test as in Test Example 2 was carried out except for changing the concentration of the liquid chemical to 3 ppm.

[2] = system: White Peach Scale (Pseudaulacaspis pentagona); assay: Insecticidal effect on white peach scale, sprayed potato tuber (Test Examples 3 and 5); conditions: 100 ppm liquid chemical, potato tuber with first-instar larvae, fourteen days after the treatment
Excerpt: Insecticidal Effect on White Peach Scale (Pseudaulacaspis pentagona)
A preparation containing each compound of the present invention listed in Tables 2 to 4 or each comparative compound as an active ingredient was dispersed in and diluted with water to obtain a 100 ppm liquid chemical. A potato tuber with first-instar larvae of white peach scale as parasites was sprayed with the liquid chemical with a spray gun. Fourteen days after the treatment, the living insects were counted. In the same manner as in Test Example 2, the corrected mortality was calculated and the insecticidal effect was judged.
Insecticidal Effect on White Peach Scale (Pseudaulacaspis pentagona) at a Low Dosage
The same test as in Test Example 3 was carried out except for changing the concentration of the liquid chemical to 30 ppm.

[3] = system: Green Peach Aphid (Myzus persicae); assay: Insecticidal effect on green peach aphid, foliar spray on potted Chinese cabbage (Test Example 1); conditions: 500 ppm liquid chemical, sprayed on Chinese cabbage stalks and leaves, six days after the spraying
Excerpt: Insecticidal Effect on Green Peach Aphid (Myzus persicae)
A Chinese cabbage plant was planted in each of plastic pots with a diameter of 8 cm and a height of 8 cm, and green peach aphids were propagated on the plant, after which the parasites in each pot were counted. A preparation containing each compound of the present invention listed in Tables 2 to 4 or each comparative compound as an active ingredient was dispersed in and diluted with water to obtain a 500 ppm liquid chemical. The stalks and leaves of the potted Chinese cabbage plants were sprayed with the liquid chemical and air-dried, and then the pots were stored in a greenhouse. Six days after the spraying, green peach aphids parasitic on each Chinese cabbage plant were counted and the control efficacy was calculated by the following equation, whereby the insecticidal effect was judged according to the criterion shown below. Control efficacy=100−{(T×Ca)/(Ta×C)}×100 • Ta: number of parasites before spraying in treated group, • T: number of parasites after spraying in treated group, • Ca: number of parasites before spraying in untreated group, • C: number of parasites after spraying in untreated group.

CC(=O)N1C(=O)N(N=Cc2cccnc2)Cc2ccccc21 [A, 1-acetyl-3-(3-pyridylmethylideneamino)-3,4-dihydro-2(1H)-quinazolinone, reference compound]
Test Example 4: controlling effect at a low dosage (corrected mortality) [1]: C (Corrected mortality 89-80%)
Test Example 2: insecticidal effect (corrected mortality) [1]: A (Corrected mortality 100%)
Test Example 3: insecticidal effect (corrected mortality) [2]: B (Corrected mortality 99-90%)
Test Example 1: insecticidal effect (control efficacy) [3]: A (Control efficacy 100%)

CC(=O)N1C(=O)N(NCc2cccnc2)Cc2cc(Br)ccc21 [B, 1-acetyl-3-(3-pyridylmethylamino)-3,4-dihydro-6-bromo-2(1H)-quinazolinone, reference compound]
Test Example 4: controlling effect at a low dosage (corrected mortality) [1]: D (Corrected mortality 79-50%)
Test Example 2: insecticidal effect (corrected mortality) [1]: C (Corrected mortality 89-80%)
Test Example 3: insecticidal effect (corrected mortality) [2]: C (Corrected mortality 89-80%)
Test Example 1: insecticidal effect (control efficacy) [3]: A (Control efficacy 100%)

CCN1C(=O)N(N=Cc2cccnc2)Cc2cc(C(F)(C(F)(F)F)C(F)(F)F)ccc21 [compound 2]
Test Example 2: insecticidal effect (corrected mortality) [1]: A (Corrected mortality 100%)
Test Example 3: insecticidal effect (corrected mortality) [2]: A (Corrected mortality 100%)
Test Example 1: insecticidal effect (control efficacy) [3]: A (Control efficacy 100%)

COCN1C(=O)N(N=Cc2cccnc2)Cc2cc(C(F)(C(F)(F)F)C(F)(F)F)ccc21 [compound 4]
Test Example 2: insecticidal effect (corrected mortality) [1]: A (Corrected mortality 100%)
Test Example 3: insecticidal effect (corrected mortality) [2]: A (Corrected mortality 100%)
Test Example 1: insecticidal effect (control efficacy) [3]: A (Control efficacy 100%)

CCOCN1C(=O)N(N=Cc2cccnc2)Cc2cc(C(F)(C(F)(F)F)C(F)(F)F)ccc21 [compound 5]
Test Example 2: insecticidal effect (corrected mortality) [1]: A (Corrected mortality 100%)
Test Example 3: insecticidal effect (corrected mortality) [2]: A (Corrected mortality 100%)
Test Example 1: insecticidal effect (control efficacy) [3]: A (Control efficacy 100%)

N#CCN1C(=O)N(N=Cc2cccnc2)Cc2cc(C(F)(C(F)(F)F)C(F)(F)F)ccc21 [compound 6]
Test Example 2: insecticidal effect (corrected mortality) [1]: A (Corrected mortality 100%)
Test Example 3: insecticidal effect (corrected mortality) [2]: A (Corrected mortality 100%)
Test Example 1: insecticidal effect (control efficacy) [3]: A (Control efficacy 100%)

O=CN1C(=O)N(N=Cc2cccnc2)Cc2cc(C(F)(C(F)(F)F)C(F)(F)F)ccc21 [compound 7]
Test Example 2: insecticidal effect (corrected mortality) [1]: A (Corrected mortality 100%)
Test Example 3: insecticidal effect (corrected mortality) [2]: A (Corrected mortality 100%)
Test Example 1: insecticidal effect (control efficacy) [3]: A (Control efficacy 100%)

CCC(=O)N1C(=O)N(N=Cc2cccnc2)Cc2cc(C(F)(C(F)(F)F)C(F)(F)F)ccc21 [compound 9]
Test Example 2: insecticidal effect (corrected mortality) [1]: A (Corrected mortality 100%)
Test Example 3: insecticidal effect (corrected mortality) [2]: A (Corrected mortality 100%)
Test Example 1: insecticidal effect (control efficacy) [3]: A (Control efficacy 100%)

CCCC(=O)N1C(=O)N(N=Cc2cccnc2)Cc2cc(C(F)(C(F)(F)F)C(F)(F)F)ccc21 [compound 10]
Test Example 2: insecticidal effect (corrected mortality) [1]: A (Corrected mortality 100%)
Test Example 3: insecticidal effect (corrected mortality) [2]: A (Corrected mortality 100%)
Test Example 1: insecticidal effect (control efficacy) [3]: A (Control efficacy 100%)

CC(C)C(=O)N1C(=O)N(N=Cc2cccnc2)Cc2cc(C(F)(C(F)(F)F)C(F)(F)F)ccc21 [compound 11]
Test Example 2: insecticidal effect (corrected mortality) [1]: A (Corrected mortality 100%)
Test Example 3: insecticidal effect (corrected mortality) [2]: A (Corrected mortality 100%)
Test Example 1: insecticidal effect (control efficacy) [3]: A (Control efficacy 100%)

CCCCC(=O)N1C(=O)N(N=Cc2cccnc2)Cc2cc(C(F)(C(F)(F)F)C(F)(F)F)ccc21 [compound 12]
Test Example 2: insecticidal effect (corrected mortality) [1]: A (Corrected mortality 100%)
Test Example 3: insecticidal effect (corrected mortality) [2]: A (Corrected mortality 100%)
Test Example 1: insecticidal effect (control efficacy) [3]: A (Control efficacy 100%)

CCC(C)C(=O)N1C(=O)N(N=Cc2cccnc2)Cc2cc(C(F)(C(F)(F)F)C(F)(F)F)ccc21 (centres unmarked) [compound 13]
Test Example 2: insecticidal effect (corrected mortality) [1]: A (Corrected mortality 100%)
Test Example 3: insecticidal effect (corrected mortality) [2]: A (Corrected mortality 100%)
Test Example 1: insecticidal effect (control efficacy) [3]: A (Control efficacy 100%)

O=C(C1CC1)N1C(=O)N(N=Cc2cccnc2)Cc2cc(C(F)(C(F)(F)F)C(F)(F)F)ccc21 [compound 14]
Test Example 2: insecticidal effect (corrected mortality) [1]: A (Corrected mortality 100%)
Test Example 3: insecticidal effect (corrected mortality) [2]: A (Corrected mortality 100%)
Test Example 1: insecticidal effect (control efficacy) [3]: A (Control efficacy 100%)

COCC(=O)N1C(=O)N(N=Cc2cccnc2)Cc2cc(C(F)(C(F)(F)F)C(F)(F)F)ccc21 [compound 15]
Test Example 2: insecticidal effect (corrected mortality) [1]: A (Corrected mortality 100%)
Test Example 3: insecticidal effect (corrected mortality) [2]: A (Corrected mortality 100%)
Test Example 1: insecticidal effect (control efficacy) [3]: A (Control efficacy 100%)

COC(=O)N1C(=O)N(N=Cc2cccnc2)Cc2cc(C(F)(C(F)(F)F)C(F)(F)F)ccc21 [compound 16]
Test Example 2: insecticidal effect (corrected mortality) [1]: A (Corrected mortality 100%)
Test Example 3: insecticidal effect (corrected mortality) [2]: A (Corrected mortality 100%)
Test Example 1: insecticidal effect (control efficacy) [3]: A (Control efficacy 100%)

CCOC(=O)N1C(=O)N(N=Cc2cccnc2)Cc2cc(C(F)(C(F)(F)F)C(F)(F)F)ccc21 [compound 17]
Test Example 2: insecticidal effect (corrected mortality) [1]: A (Corrected mortality 100%)
Test Example 3: insecticidal effect (corrected mortality) [2]: A (Corrected mortality 100%)
Test Example 1: insecticidal effect (control efficacy) [3]: A (Control efficacy 100%)

CCCOC(=O)N1C(=O)N(N=Cc2cccnc2)Cc2cc(C(F)(C(F)(F)F)C(F)(F)F)ccc21 [compound 18]
Test Example 2: insecticidal effect (corrected mortality) [1]: A (Corrected mortality 100%)
Test Example 3: insecticidal effect (corrected mortality) [2]: A (Corrected mortality 100%)
Test Example 1: insecticidal effect (control efficacy) [3]: A (Control efficacy 100%)

CC(C)OC(=O)N1C(=O)N(N=Cc2cccnc2)Cc2cc(C(F)(C(F)(F)F)C(F)(F)F)ccc21 [compound 19]
Test Example 2: insecticidal effect (corrected mortality) [1]: A (Corrected mortality 100%)
Test Example 3: insecticidal effect (corrected mortality) [2]: A (Corrected mortality 100%)
Test Example 1: insecticidal effect (control efficacy) [3]: A (Control efficacy 100%)

CCCCOC(=O)N1C(=O)N(N=Cc2cccnc2)Cc2cc(C(F)(C(F)(F)F)C(F)(F)F)ccc21 [compound 20]
Test Example 2: insecticidal effect (corrected mortality) [1]: A (Corrected mortality 100%)
Test Example 3: insecticidal effect (corrected mortality) [2]: A (Corrected mortality 100%)
Test Example 1: insecticidal effect (control efficacy) [3]: A (Control efficacy 100%)

CCC(C)OC(=O)N1C(=O)N(N=Cc2cccnc2)Cc2cc(C(F)(C(F)(F)F)C(F)(F)F)ccc21 (centres unmarked) [compound 21]
Test Example 2: insecticidal effect (corrected mortality) [1]: A (Corrected mortality 100%)
Test Example 3: insecticidal effect (corrected mortality) [2]: A (Corrected mortality 100%)
Test Example 1: insecticidal effect (control efficacy) [3]: A (Control efficacy 100%)

CS(=O)(=O)N1C(=O)N(N=Cc2cccnc2)Cc2cc(C(F)(C(F)(F)F)C(F)(F)F)ccc21 [compound 22]
Test Example 2: insecticidal effect (corrected mortality) [1]: A (Corrected mortality 100%)
Test Example 3: insecticidal effect (corrected mortality) [2]: A (Corrected mortality 100%)
Test Example 1: insecticidal effect (control efficacy) [3]: A (Control efficacy 100%)

CCS(=O)(=O)N1C(=O)N(N=Cc2cccnc2)Cc2cc(C(F)(C(F)(F)F)C(F)(F)F)ccc21 [compound 23]
Test Example 2: insecticidal effect (corrected mortality) [1]: A (Corrected mortality 100%)
Test Example 3: insecticidal effect (corrected mortality) [2]: A (Corrected mortality 100%)
Test Example 1: insecticidal effect (control efficacy) [3]: A (Control efficacy 100%)

O=C(c1ccccc1)N1C(=O)N(N=Cc2cccnc2)Cc2cc(C(F)(C(F)(F)F)C(F)(F)F)ccc21 [compound 24]
Test Example 2: insecticidal effect (corrected mortality) [1]: A (Corrected mortality 100%)
Test Example 3: insecticidal effect (corrected mortality) [2]: A (Corrected mortality 100%)
Test Example 1: insecticidal effect (control efficacy) [3]: A (Control efficacy 100%)

O=C(c1ccccc1C(F)(F)F)N1C(=O)N(N=Cc2cccnc2)Cc2cc(C(F)(C(F)(F)F)C(F)(F)F)ccc21 [compound 25]
Test Example 2: insecticidal effect (corrected mortality) [1]: A (Corrected mortality 100%)
Test Example 3: insecticidal effect (corrected mortality) [2]: A (Corrected mortality 100%)
Test Example 1: insecticidal effect (control efficacy) [3]: A (Control efficacy 100%)
